Laboratory results as given in US10987336B2, “Method of preventing or treating side effect of tumor therapy” (priority 2018, dated 2021).
Where two headings read alike, the source gives them in different places.

Tests used:
HUVEC cells [1] = test: CCK-8 cell survival: ameliorating proliferative toxicity of VEGF/VEGFR inhibitor (Examples 4-15); type: cell-based; conditions: agent 100 μM, 24-48 h
HaCaT cells = type: cell-based, human
HUVEC cells [2] = type: cell-based; conditions: Sorafenib (V1) 10 μM + agent 50 μM, 24 hours, CCK-8
Calmodulin (CaM) = test: Western Blot expression level in HaCaT cells (Example 147); type: cell-based, human; conditions: 24 hours, compared with the control group
Experimental: In the present application, compared effect of the nitric oxide releasing agent with calcium channel blocker on expression levels of calmodulin and calreticulin in HaCat cell The cultured HaCaT cells were digested, suspended, counted, and seeded into a 6-well plate with 200,000 cells per well. After the cells were attached, a nitric oxide releasing agent (or calcium channel blocker) solution was added to achieve a particular final concentration. A basic medium was added into the control group. At 24 hours after administration of the nitric oxide releasing agent (or calcium channel blocker), RIPA lysate [MUT], Beyotime Biotechnology) was used to extract protein. The change of expressions of calmodulin and calreticulin was determined by Western Blot. […] Image Lab was used to analyze the gray value results. GraphPad Prism 6.0 Software and t-test were used to carry out a statistic analysis of the results and plot a graph. Of those, represents P<0.001, ** represents P<0.01, * represents P<0.05, indicating a significant difference as compared with the corresponding control group; as statistically analyzed by using t-test.

[3] = HaCaT, Sorafenib (V1) 10 μM + agent 50 μM, 24 hours, CCK-8

NCCN(CCN)/[N+]([O-])=N/O [3,3-Bis (aminoethyl)-1-hydroxy-2-oxo-1-triazene]
Cell Survival Rate (viable cells increased vs VEGF/VEGFR inhibitor group) (HUVEC cells [1]; Regorafenib 10 μM): Increased by 15-20%
Cell Survival Rate (viable cells increased vs VEGF/VEGFR inhibitor group) (HUVEC cells [1]; Sorafenib 5 μM): Increased by 35-45%
Cell Survival Rate (viable cells increased vs VEGF/VEGFR inhibitor group) (HUVEC cells [1]; Sunitinib 5 μM): Increased by 20-30%

N=c1c[n+](N2CCOCC2)[n-]o1 [3-morpholinosydnonimine]
Cell Survival Rate (viable cells increased vs VEGF/VEGFR inhibitor group) (HUVEC cells [1]; Regorafenib 10 μM): Increased by 15-20%
Cell Survival Rate (viable cells increased vs VEGF/VEGFR inhibitor group) (HUVEC cells [1]; Sorafenib 5 μM): Increased by 30-40%
Cell Survival Rate (viable cells increased vs VEGF/VEGFR inhibitor group) (HUVEC cells [1]; Sunitinib 5 μM): Increased by 10-20%

CC(C)CCON=O [Isoamyl Nitrite]
Cell Survival Rate (viable cells increased vs VEGF/VEGFR inhibitor group) (HUVEC cells [1]; Apatinib 10 μM): Increased by 40-50%
Cell Survival Rate (viable cells increased vs VEGF/VEGFR inhibitor group) (HUVEC cells [1]; Axitinib 10 μM): Increased by 20-30%
Cell Survival Rate (viable cells increased vs VEGF/VEGFR inhibitor group) (HUVEC cells [1]; Lenvatinib Mesylate 10 μM): Increased by 30-50%
Cell Survival Rate (viable cells increased vs VEGF/VEGFR inhibitor group) (HUVEC cells [1]; Nintedanib Esylate 10 μM): Increased by 30-50%
Cell Survival Rate (viable cells increased vs VEGF/VEGFR inhibitor group) (HUVEC cells [1]; Pazopanib Hydrochloride 10 μM): Increased by 20-30%
Cell Survival Rate (viable cells increased vs VEGF/VEGFR inhibitor group) (HUVEC cells [1]; Regorafenib 10 μM): Increased by 15-20%
Cell Survival Rate (viable cells increased vs VEGF/VEGFR inhibitor group) (HUVEC cells [1]; Sorafenib 5 μM): Increased by 30-40%
Cell Survival Rate (viable cells increased vs VEGF/VEGFR inhibitor group) (HUVEC cells [1]; Sunitinib 5 μM): Increased by 20-25%
Cell Survival Rate (viable cells increased vs VEGF/VEGFR inhibitor group) (HUVEC cells [1]; Thalidomide 10 μM): Increased by 20-30%

O=[N+]([O-])O[C@H]1CO[C@H]2[C@@H]1OC[C@H]2O[N+](=O)[O-] [Isosorbide Dinitrate]
Cell Survival Rate (percentage of viable cells increased as compared to the VEGF/VEGFR inhibitor group) (HaCaT cells; [3]): by 20-50%

O=[N+]([O-])O[C@@H]1CO[C@H]2[C@@H]1OC[C@@H]2O [Isosorbide Mononitrate]
Cell Survival Rate (viable cells increased vs VEGF/VEGFR inhibitor group) (HUVEC cells [1]; Regorafenib 10 μM): Increased by 20-30%
Cell Survival Rate (viable cells increased vs VEGF/VEGFR inhibitor group) (HUVEC cells [1]; Sorafenib 5 μM): Increased by 30-35%
Cell Survival Rate (viable cells increased vs VEGF/VEGFR inhibitor group) (HUVEC cells [1]; Sunitinib 5 μM): Increased by 20-25%
Cell Survival Rate (percentage of viable cells increased as compared to the VEGF/VEGFR inhibitor group) (HUVEC cells [2]): by 20-40%
Cell Survival Rate (percentage of viable cells increased as compared to the VEGF/VEGFR inhibitor group) (HaCaT cells; [3]): by 20-50%

CCOC(=O)[N-]c1cn(N2CCOCC2)n[o+]1 [Molsidomine]
Cell Survival Rate (viable cells increased vs VEGF/VEGFR inhibitor group) (HUVEC cells [1]; Apatinib 10 μM): Increased by 40-50%
Cell Survival Rate (viable cells increased vs VEGF/VEGFR inhibitor group) (HUVEC cells [1]; Axitinib 10 μM): Increased by 20-30%
Cell Survival Rate (viable cells increased vs VEGF/VEGFR inhibitor group) (HUVEC cells [1]; Lenvatinib Mesylate 10 μM): Increased by 30-50%
Cell Survival Rate (viable cells increased vs VEGF/VEGFR inhibitor group) (HUVEC cells [1]; Nintedanib Esylate 10 μM): Increased by 30-50%
Cell Survival Rate (viable cells increased vs VEGF/VEGFR inhibitor group) (HUVEC cells [1]; Pazopanib Hydrochloride 10 μM): Increased by 20-30%
Cell Survival Rate (viable cells increased vs VEGF/VEGFR inhibitor group) (HUVEC cells [1]; Regorafenib 10 μM): Increased by 20-30%
Cell Survival Rate (viable cells increased vs VEGF/VEGFR inhibitor group) (HUVEC cells [1]; Sorafenib 5 μM): Increased by 30-40%
Cell Survival Rate (viable cells increased vs VEGF/VEGFR inhibitor group) (HUVEC cells [1]; Sunitinib 5 μM): Increased by 20-30%
Cell Survival Rate (viable cells increased vs VEGF/VEGFR inhibitor group) (HUVEC cells [1]; Thalidomide 10 μM): Increased by 20-30%

O=C(NCCO[N+](=O)[O-])c1cccnc1 [Nicorandil]
Cell Survival Rate (viable cells increased vs VEGF/VEGFR inhibitor group) (HUVEC cells [1]; Apatinib 10 μM): Increased by 40-50%
Cell Survival Rate (viable cells increased vs VEGF/VEGFR inhibitor group) (HUVEC cells [1]; Axitinib 10 μM): Increased by 20-30%
Cell Survival Rate (viable cells increased vs VEGF/VEGFR inhibitor group) (HUVEC cells [1]; Lenvatinib Mesylate 10 μM): Increased by 30-50%
Cell Survival Rate (viable cells increased vs VEGF/VEGFR inhibitor group) (HUVEC cells [1]; Nintedanib Esylate 10 μM): Increased by 30-50%
Cell Survival Rate (viable cells increased vs VEGF/VEGFR inhibitor group) (HUVEC cells [1]; Pazopanib Hydrochloride 10 μM): Increased by 20-30%
Cell Survival Rate (viable cells increased vs VEGF/VEGFR inhibitor group) (HUVEC cells [1]; Regorafenib 10 μM): Increased by 20-30%
Cell Survival Rate (viable cells increased vs VEGF/VEGFR inhibitor group) (HUVEC cells [1]; Sorafenib 5 μM): Increased by 50-60%
Cell Survival Rate (viable cells increased vs VEGF/VEGFR inhibitor group) (HUVEC cells [1]; Sunitinib 5 μM): Increased by 10-20%
Cell Survival Rate (viable cells increased vs VEGF/VEGFR inhibitor group) (HUVEC cells [1]; Thalidomide 10 μM): Increased by 20-30%

O=[N+]([O-])OCC(CO[N+](=O)[O-])O[N+](=O)[O-] [Nitroglycerin]
Cell Survival Rate (percentage of viable cells increased as compared to the VEGF/VEGFR inhibitor group) (HUVEC cells [2]): by 25-50%
Cell Survival Rate (percentage of viable cells increased as compared to the VEGF/VEGFR inhibitor group) (HaCaT cells): by 20-40%

CCCc1nn(C)c2c(=O)[nH]c(-c3cc(S(=O)(=O)N4CCN(C)CC4)ccc3OCC)nc12 [Sildenafil]
Cell Survival Rate (viable cells increased vs VEGF/VEGFR inhibitor group) (HUVEC cells [1]; Regorafenib 10 μM): No significant change
Cell Survival Rate (viable cells increased vs VEGF/VEGFR inhibitor group) (HUVEC cells [1]; Sorafenib 5 μM): No significant change
Cell Survival Rate (viable cells increased vs VEGF/VEGFR inhibitor group) (HUVEC cells [1]; Sunitinib 5 μM): No significant change

COc1ccc([C@@H]2Sc3ccccc3N(CCN(C)C)C(=O)[C@@H]2OC(C)=O)cc1 [diltiazem]
expression level of calmodulin (CaM), gray value analysis (Calmodulin (CaM)): decreased significantly
